Patent publication US4400534A, “Analgesic and anti-inflammatory agents” (Sankyo Company, Limited, priority 1980, dated 1983)

Key:
[1] = biological target: T1, microsome prostaglandin-biosynthesis enzyme (Bos taurus, UniProt O62664); assay: Inhibition of PG-biosynthesis enzyme activity, bovine seminal vesicle microsome test; format: biochemical; settings: for IC50: bovine seminal vesicle microsome 1mg/ml, 14C-arachidonic acid 10 μM, pH 7.6, 30° C., 10 minutes, prostaglandin E2 measured, read-out: Inhibition of PG-biosynthesis enzyme activity, Bovine seminal vesicle microsome I50
T1 construct: microsome prostaglandin-biosynthesis enzyme (1mg/ml) fractionated from bovine seminal vesicles; from tissue; host or cells: bovine seminal vesicles (microsomes)
T1 sequence (O62664 25-600): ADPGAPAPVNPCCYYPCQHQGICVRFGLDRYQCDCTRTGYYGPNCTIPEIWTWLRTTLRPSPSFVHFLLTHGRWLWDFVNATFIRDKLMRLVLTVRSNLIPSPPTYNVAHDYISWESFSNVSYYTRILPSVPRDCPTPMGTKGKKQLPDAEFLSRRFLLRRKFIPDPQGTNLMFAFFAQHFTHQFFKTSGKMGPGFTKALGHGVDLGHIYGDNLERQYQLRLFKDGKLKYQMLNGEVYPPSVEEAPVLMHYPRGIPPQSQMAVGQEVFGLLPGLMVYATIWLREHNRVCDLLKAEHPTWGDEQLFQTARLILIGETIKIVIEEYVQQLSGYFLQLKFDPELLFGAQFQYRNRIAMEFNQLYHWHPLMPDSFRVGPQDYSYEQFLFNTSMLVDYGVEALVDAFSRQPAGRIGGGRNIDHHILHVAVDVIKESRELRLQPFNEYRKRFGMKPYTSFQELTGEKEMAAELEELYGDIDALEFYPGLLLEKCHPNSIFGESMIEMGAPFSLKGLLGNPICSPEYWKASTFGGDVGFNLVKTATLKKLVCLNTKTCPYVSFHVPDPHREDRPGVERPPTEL
Experimental: Microsome tests were conducted according to the methods of E Takeguchi, E Kohno, C J Sih: Biochemistry 10, 2372 (1971), "Preparation of bovine seminal vesicle" and of R J Flower, H S Cheung, D W Cushman: Prostaglandins 4, 325 (1973), "Pharmacological action system."
The compounds under test were added to a system comprising microsome prostaglandin-biosynthesis enzyme (1mg/ml) fractionated from bovine seminal vesicles, glutathione (2 mM), epinephrine (1 mM) and trisaminomethane-hydrochloric acid buffer solution pH 7.6 (0.1 M). The mixture was left to stand at 30° C. for 5 minutes and commercially available ^14 C-arachidonic acid (10 μM, 50-60 nCi) was added. The resultant solution was maintained at 30° C. for 10 minutes and reaction then stopped by addition of 0.1 N hydrochloric acid. After extraction of the reaction mixture, the extract was separated by thin layer chromatography on silica gel to give the prostaglandin which was produced. The main product, prostaglandin E2, was measured using a liquid scintilation counter in accordance with the method of L Levine et al: Journal of Biological Chemistry (246, 6782 (1971). The inhibitory activities were assayed by the radioactivity ratio of the sample to a blank.

[2] = tested on: prostaglandin-biosynthesis in 3T6 cells; assay: Inhibition of prostaglandin-biosynthesis in cultured cells (3T6 cells from mouse fibroblasts); format: cell-based; settings: for IC50: Mus musculus, Fibroblast, 3T6 cells, 2 hours contact, then arachidonic acid 5 μg/ml, 1 hour, prostaglandin E2 by radioimmunoassay, read-out: Inhibition of PG-biosynthesis enzyme activity, Culture cells I50
Experimental: 3T6 cells from mouse fibroblasts were used as the cultured cells.
About six hundred thousand 3T6 cells were cultured in a plastics Petri dish (35 mm inner diameter) at 37° C. for 48 hours using a minimum-requirement medium, Darbecco (Trade Mark). After culturing, the cells were separated, washed, and then contacted with the same medium but containing the compound under test. After contacting for 2 hours, the medium was separated off and the cells washed. The medium containing 5 μg/ml of arachidonic acid and the test compound were added. Culturing was allowed to continue for 1 hour, and then the concentration of the prostaglandin E2 in the medium was assayed by radioimmunoassay.

| IC50 [1] | inhibition of prostaglandin-biosynthesis enzyme activity (in words) [1] | SMILES | IC50 [2] | activity compared to indomethacin (in words) ([2]; cultured cells test, called in vivo) |
| --- | --- | --- | --- | --- |
| 72 µM | – | C[C@H](C(=O)O)c1ccc(CC2CCCC2O)cc1 (stereo partly drawn) [I, (2S)-2-[4-(2-hydroxycyclopentan-1-ylmethyl)phenyl]propionic acid] | – | – |
| 13 µM | – | C[C@H](C(=O)O)c1ccc(CC2CCCC2O)cc1 (stereo partly shown) [II + III] | – | – |
| 9 µM | more active than the compound (I) | C[C@H](C(=O)O)c1ccc(C[C@H]2CCC[C@@H]2O)cc1 [II, (2S)-2-{4-[(1R,2S)-2-hydroxycyclopentan-1-ylmethyl]phenyl}propionic acid] | 0.25 µM | better activity in the compound (II) compared to indomethacin |
| – | – | COc1ccc2c(c1)c(CC(=O)O)c(C)n2C(=O)c1ccc(Cl)cc1 [IM, indomethacin, reference compound] | 0.34 µM | – |
